We go through 3 compounds from patent US8865408B2, “Signature for the diagnosis of cancer aggressiveness and genetic instability” (Centre National de la Recherche Scientifique (CNRS), priority 2009, dated 2014).

One assay relates to MCF7 cells. The assay is described as follows: Clonogenic assay, sensitivity to Chk2 inhibitor. Type of assay: cell-based. The conditions noted are these: MCF7 compared with MDA-MB231 cells, 1 μM to 150 μM during 16 hours, seven more days. The method, then:
FIG. 12. Effect of POLQ gene expression level on sensitivity to a Chk2 inhibitor. […] Survival is determined in a clonogenic assay. MCF7: squares; MDA-MB231: diamonds (B) POLQ expression is higher in MCF7 than in MDA-MB231. Gene expression levels are assayed by RT-PCR. C51 is a normal breast cell line.
MDA-MB231 and MCF7 breast cancer cells (ATCC) were grown in RPMI 1640+ glutamax medium. A 13.8 mM Chk2 inhibitor II Hydrate (Sigma RefC3742) stock solution was prepared by diluting the agent in DMSO (Sigma) and stored at −20° C. This solution was diluted in culture medium to give as indicated the final drug concentration. Cells were exposed to different concentrations ranging from 1 μM to 150 μM during 16 hours. Cells were washed with PBS buffer, fresh medium was added and cells were incubated for seven more days. Cells were fixed with NaCl 0.9% and stained with crystal violet (Sigma C3886). Clones containing more than 20 cells were counted. For the clonogenic assay 400 cells were seeded in six-well plates and incubated overnight. The POLQ expression was measured by real-time PCR as described above.
Cells overexpressing POLQ accumulate DNA damage. […] In order to test this hypothesis, the viability of the MCF7 and MDA-MB231 cells was determined in the presence of increasing amounts of a Chk2 inhibitor. […]

The test system of assay [1] is POLQ overexpressing (Q1, Q2, Q3) and isogenic control (CTL2, CTL5) cells. Description: Clonogenic assay, sensitivity to alkylating agents. The conditions noted are these: POLQ over-expressing clones vs isogenic controls; MMS 1 h at 37° C., MNU continuous. Type of assay: cell-based, human. On the procedure: FIG. 9. Sensitivity to alkylating agents. Drug sensitivity was determined by clonogenic assay. Sensitivity of POLQ overexpressing (Q1, Q2, Q3) and isogenic control (CTL2, CTL5) cells to methyl methanesulfonate (MMS) and N-methyl-N-nitrosourea (MNU). Survival is expressed as the relative plating efficiency of treated cells to the controls. […] Results are the mean+/−SD of at least three separate experiments performed in duplicate.
POLQ overexpression was immuno-detected as published (Seki et al. Nucleic Acids Res 31: 6117-6126, 2003), using purified protein as a size control.
Treatment was 1 h at 37° C. for methyl methanesulfonate (MMS) and continuous for N-methyl-N-nitrosourea (MNU) Immunodetection of γ-H2AX and PT68-CHK2 was carried out according to Rao et al. (Rao et al. Mol Cancer Res 5:713-24, 2007).
A proposed role of POLQ in BER could be that over-expressed POLQ interferes with the BER pathway and leads to an accumulation of endogenous DNA damage (including damage generated by reactive oxygen species). To test this hypothesis, we measured the sensitivity of the POLQ over-expressing cells to methyl-methanesulfonate (MMS) and Nitroso-N-methylurea (MNU) (FIG. 9), both of which induce DNA damage repaired by BER.

`NC(=O)c1ccc2nc(-c3ccc(Oc4ccc(Cl)cc4)cc3)[nH]c2c1.O` [Chk2 inhibitor II Hydrate]: the “sensitivity to Chk2 inhibitor (survival in clonogenic assay)” value in the assay on MCF7 cells was “higher sensitivity”; with MCF7 cells (listed as CHK2 inhibitor), “hypersensitive”. Turning to `COS(C)(=O)=O` [MMS, methyl methanesulfonate], the “effect of POLQ over-expression on survival to treatment” value in assay [1] is on record as “did not significantly affect survival”. With `CN(N=O)C(N)=O` [MNU, N-methyl-N-nitrosourea], the “effect of POLQ over-expression on survival to treatment” value in assay [1] is given as “did not significantly affect survival”.
